The structures appear in SMILES notation.

For three compounds, Ki results are on record in US7968568B2, “Substituted piperidine derivatives as SST5 modulators” (Hoffmann-La Roche Inc., priority 2006, dated 2011).

The target in the experiment is T1, human subtype 5 somatostatin receptor (Homo sapiens, UniProt P35346).
T1 construct: host or cells: CHO cell line, stably transfected; membranes prepared
Briefly: SSTR5 radioligand binding assay (125I-labeled 11-Tyr somatostatin-14) on CHO cell membranes. Particulars: Ki calculated from IC50 by Cheng-Prussoff equation. As for the experimental part:
A CHO cell line stably transfected with a plasmid encoding the human subtype 5 somatostatin receptor (GenBank accession number D16827) was obtained from Euroscreen. Cells were cultured and used for binding and functional assays.
Membranes of these cells were prepared by sonication in the presence of protease inhibitors and subsequent fractionating centrifugation. The protein concentration in the membrane preparation was determined using a commercial kit (BCA kit, Pierce, USA). Membranes were stored at −80° C. until use. After thawing, membranes were diluted in assay buffer (50 mM Tris-HCl at pH 7.4, 5 mM MgCl2 and 0.20% BSA) and subjected to dounce homogenization.
For binding studies, 0.1 mL membrane suspension, corresponding to app. 6×10^−15 mol receptor, was incubated for 1 h at room temperature with 0.05 nM ^125I-labeled tracer (11-Tyr somatostatin-14, Perkin-Elmer) and either test compounds in varying concentrations or, for the determination of non-specific binding, 0.001 mM non-labeled somatostatin-14. The incubation was stopped by filtration through GF/B glassfiber filters and washing with ice-cold wash buffer (50 mM Tris-HCl at pH 7.4). The bound radioactivity was measured after application of a scintillation cocktail (Microscint 40) and expressed as disintegrations per minute (dpm).
The receptor concentration was determined in a prior saturation experiment where a fixed, arbitrary amount of membranes was incubated with a concentration range of radio-labeled tracer. This allows estimating the total number of specific binding sites per amount of protein (i.e., Bmax), typically between 1 and 5 pmol/mg.
The concentration of the test compound required to result in half maximal inhibition of binding of the radio-labeled tracer (IC50) was estimated from a concentration-versus-dpm graph. The binding affinity (Ki) was calculated from the IC50 by applying the Cheng-Prussoff equation for single binding sites.

T1 sequence (P35346 whole entry): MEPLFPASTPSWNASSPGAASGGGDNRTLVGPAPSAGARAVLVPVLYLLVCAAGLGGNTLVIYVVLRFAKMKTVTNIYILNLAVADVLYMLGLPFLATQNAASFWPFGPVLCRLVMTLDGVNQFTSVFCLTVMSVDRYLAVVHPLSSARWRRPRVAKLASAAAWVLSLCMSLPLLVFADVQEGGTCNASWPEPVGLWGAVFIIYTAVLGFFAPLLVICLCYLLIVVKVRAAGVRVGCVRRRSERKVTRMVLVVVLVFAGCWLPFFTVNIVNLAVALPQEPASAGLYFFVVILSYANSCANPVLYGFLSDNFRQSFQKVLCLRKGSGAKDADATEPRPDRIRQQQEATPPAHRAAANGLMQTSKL

Usually Ki stands for the equilibrium dissociation constant of an inhibitor or competing ligand from its target. On to `CCOc1cc(CN2CCC(Nc3ncnc4cc(Cl)ccc34)CC2)ccc1Cl` [Example 23, [1-(4-chloro-3-ethoxy-benzyl)-piperidin-4-yl]-(7-chloro-quinazolin-4-yl)-amine], for which the Ki is 2 nM.

`C=CCOc1cc(CN2CCC(Nc3nc(Cl)ncc3OC)CC2)ccc1OC` [Example 147, [1-(3-allyloxy-4-methoxy-benzyl)-piperidin-4-yl]-(2-chloro-5-methoxy-pyrimidin-4-yl)-amine]: the Ki is 78 nM.

For the compound `CCOc1cc(CN2CCC(Nc3nc(Cl)nc4cc(Cl)c(F)cc34)CC2)ccc1OC` [Example 15, (2,7-dichloro-6-fluoro-quinazolin-4-yl)-[1-(3-ethoxy-4-methoxy-benzyl)-piperidin-4-yl]-amine], the Ki was 383 nM.
